Laboratory results from patent US8691255B2, “Method of producing high alcohol content foaming compositions with silicone-based surfactants” (Deb Worldwide Healthcare Inc., priority 2005, dated 2014).

Experiment: Foam evaluation of the prepared solutions: foam produced or not, and foam description
Type: physicochemical
Conditions: alone, 40% ethanol, 3% CAPB; compared with 60% v/v ethanol and less than 1.0% silicone-based surfactants
Protocol: Examples 1 through 12 were prepared to illustrate the ability to produce alcohol-based disinfecting formulations which can be dispensed as foams using different surfactants and a solution of water and 50% ethanol. Examples 13 through 16 illustrate increasing concentrations of a silicone-based surfactant to produce foam with 40% ethanol. Examples 17 through 32 show increasing concentrations of ethanol with different silicone-based surfactants to produce foam. Examples 33 through 36 illustrate increasing concentrations of a silicone-based surfactant to produce acceptable foam at 62% ethanol. Examples 37 through 52 illustrate the ability to produce foam using different surfactants and a solution of 70% v/v Isopropanol. All parts and percentages are expressed by weight unless otherwise indicated.
The following examples were intended to evaluate the foaming ability of different groups of Silicon surfactants with different combinations of ethanol, n-propyl alcohol and Isopropyl alcohol. They were also designed to assess the effect in the after feel as well as in the foam quality of some emollients and humectants, lipids, and other cosmetic type desired ingredients to be used with a leave-on hand sanitizer product. […]
The solutions prepared, were evaluated as to whether foam was produced or not and if so, then the foam produced was described as follows: […]

foam results: unable to produce as good results
Substance: Cocamidopropyl betaine
